Measured values reported in PMC9501129 (Pharmaceutics, 2022).
Like-named read-outs stand apart in the source and are kept apart here.

How the values were obtained:
[1] = cited from earlier work
pregnant rabbits = conditions: CAB orally 0, 30, 500, or 2000 mg/kg/day, gestational day 7 to 19; cited from earlier work
[2] = Maternal plasma drug concentration in mouse pregnancy model (HPLC-MSMS); format: in vivo, C57BL/6J mice; conditions: pregnant mice, mean (SD), n=2; for concentration at 24 h / Cmax at 1 h: female, C57BL/6J, mouse, plasma; for concentration at 24 h: oral, read-out: Plasma Concentration 24 h (Cmin)
Source text: All animal experiments were approved by the University Health Network Animal Use Committee (protocol #2575) and performed according to the policies and guidelines of the Canadian Council on Animal Care. C57BL/6J mice bred in-house (original breeders from Jackson Laboratory RRID:IMSR JAX:000664) were maintained under a 12-h light/dark cycle, with ad libitum access to food and water. Animals were acclimated to their surroundings for 1 week prior to experiment initiation. Males were isolated for 7 days prior to mating. Female mice (7–12 weeks of age) were mated with males at a ratio of 2:1. Presence of vaginal plug was denoted as gestational day 0.5 (GD0.5). Pregnancy was confirmed by weight gain of >1.5 g on GD9.5 and >3 g on GD13.5. […] The equivalent mouse mg/kg dose was calculated based on the human dose divided by an assumed average human weight of 60 kg. The dose of TDF/FTC was kept constant across the different dosages of BIC and CAB. On GD15.5, mice underwent saphenous bleed 24 h after the GD14.5 dose administration (trough). Immediately after the saphenous bleed, mice were dosed with the appropriate drug regimen and sacrificed 1 h post-treatment (peak), at which time blood was collected by cardiac puncture and amniotic fluid was collected by dissecting the uterus, puncturing the amniotic sac, and draining the amniotic fluid into a sterile dish. Amniotic fluid was pooled for the entire litter. Samples from 2 dams per arm were analyzed for drug levels.
BIC and CAB levels in plasma and amniotic fluid were determined using a validated, simultaneous assay using high-performance liquid chromatography coupled with tandem mass spectrometry (HPLC-MSMS). Briefly, 50 μL of plasma or amniotic fluid was spiked with internal standard (ritonavir-d6) followed by protein precipitation with acetonitrile and filtration. Filtrates were diluted 1:9 with ammonium acetate buffer (10 mM) and analyzed by the HPLC-MSMS system, consisting of a Shimadzu Nexera XR high-performance liquid chromatograph (Shimadzu, Columbia, MD, USA) coupled with a SCIEX API 4500 QqQ mass spectrometer (SCIEX, Concord, ON, Canada). Chromatographic separation by Mobile Phase A (10% methanol, 5% 50 mM ammonium acetate, 85% 0.25% acetic acid pH 3.6 ± 0.2) and Mobile Phase B (90% methanol, 5% 50 mM ammonium acetate, 5% 0.25% acetic acid pH 6.6 ± 0.2) was performed under linear gradient conditions (flow rate 0.7 mL/min) on a reverse-phase Zorbax XDB-C18 column (Agilent Technologies, Santa Clara, CA, USA) maintained at 40 °C. […] HPLC-MSMS data were acquired using Analyst (v 1.6.3, SCIEX, Concord, ON, Canada) and analyzed with MultiQuant software (v 3.0.3, SCIEX, Concord, ON, Canada). […] No peaks were detected in blank mouse plasma at the retention time with the specific ion settings for each compound. […] Positive controls spiked in-house and prepared by an external laboratory during a sample exchange program were included in all runs.

pregnant rats = conditions: gestational day 0 to 17, cited from earlier work
[3] = ART-naïve, Switch study, ART-experienced, virologically suppressed, CAB/rilpivirin LA every 4 weeks, initial injection 600 mg IM
[4] = ART-naïve, Switch study, ART-experienced, virologically suppressed, CAB/rilpivirin LA every 4 weeks, oral 30 mg once daily
[5] = Healthy Participants (Females), 30 mg oral phase, 600 mg LA CAB every 12 weeks, 1st injection
[6] = Healthy Participants (Females), 30 mg oral phase, 600 mg LA CAB every 12 weeks, 2nd injection
[7] = Healthy Participants (Females), 30 mg oral phase, 600 mg LA CAB every 12 weeks, 3rd injection
[8] = Healthy Participants (Females), 30 mg oral phase, 600 mg LA CAB every 12 weeks, 4th injection
[9] = Healthy Participants (Females), 30 mg oral phase, 600 mg LA CAB every 12 weeks, 5th injection
[10] = Healthy Participants (Females), 30 mg oral phase, 800 mg LA CAB every 12 weeks, 1st injection
[11] = Healthy Participants (Females), 30 mg oral phase, 800 mg LA CAB every 12 weeks, 2nd injection
[12] = Healthy Participants (Females), 30 mg oral phase, 800 mg LA CAB every 12 weeks, 3rd injection
[13] = Healthy Participants (Males), 30 mg oral phase, 600 mg LA CAB every 12 weeks, 1st injection
[14] = Healthy Participants (Males), 30 mg oral phase, 600 mg LA CAB every 12 weeks, 2nd injection
[15] = Healthy Participants (Males), 30 mg oral phase, 600 mg LA CAB every 12 weeks, 3rd injection
[16] = Healthy Participants (Males), 30 mg oral phase, 600 mg LA CAB every 12 weeks, 4th injection
[17] = Healthy Participants (Males), 30 mg oral phase, 600 mg LA CAB every 12 weeks, 5th injection
[18] = Healthy Participants (Males), 30 mg oral phase, 800 mg LA CAB every 12 weeks, 1st injection, ref 28
[19] = Healthy Participants (Males), 30 mg oral phase, 800 mg LA CAB every 12 weeks, 1st injection, ref 29
[20] = Healthy Participants (Males), 30 mg oral phase, 800 mg LA CAB every 12 weeks, 2nd injection, ref 28
[21] = Healthy Participants (Males), 30 mg oral phase, 800 mg LA CAB every 12 weeks, 2nd injection, ref 29
[22] = Healthy Participants (Males), 30 mg oral phase, 800 mg LA CAB every 12 weeks, 3rd injection, ref 28
[23] = Healthy Participants (Males), 30 mg oral phase, 800 mg LA CAB every 12 weeks, 3rd injection, ref 29
[24] = Healthy Participants, oral lead-in followed by LA CAB IM or SC injection: 30 mg, with Rilpivirine LA IM monthly
[25] = Healthy Participants, oral lead-in followed by LA CAB injection: 200 mg IM, with Rilpivirine LA IM monthly
[26] = Healthy Participants, oral lead-in followed by LA CAB injection: 200 mg SC, with Rilpivirine LA IM monthly
[27] = Healthy Participants, oral lead-in followed by LA CAB injection: 400 mg IM, with Rilpivirine LA IM monthly
[28] = Healthy Participants, oral lead-in followed by LA CAB injection: 800 mg IM, with Rilpivirine LA IM monthly
[29] = Healthy Participants, repeat oral dose 5 mg
[30] = Healthy Participants, repeat oral dose 10 mg
[31] = Healthy Participants, repeat oral dose 25 mg
[32] = Healthy Participants, single oral dose 5 mg
[33] = Healthy Participants, single oral dose 10 mg
[34] = Healthy Participants, single oral dose 25 mg
[35] = Healthy Participants, single oral dose 50 mg
[36] = Participants with HIV, repeat oral dose 30 mg
[37] = Participants with HIV, single oral dose 5 mg
[38] = CAB 0.5 mg/kg (1×) oral gavage once daily GD11.5-GD15.5 with TDF 50 mg/kg + FTC 33.3 mg/kg
[39] = CAB 1.5 mg/kg (3×) oral gavage once daily GD11.5-GD15.5 with TDF 50 mg/kg + FTC 33.3 mg/kg
[40] = CAB 5 mg/kg (10×) oral gavage once daily GD11.5-GD15.5 with TDF 50 mg/kg + FTC 33.3 mg/kg

C[C@H]1CO[C@@H]2Cn3cc(C(=O)NCc4ccc(F)cc4F)c(=O)c(O)c3C(=O)N12 [CAB, cabotegravir]
Human Plasma Levels Cmax [1, 3]: 8000 ng/mL
Human Plasma Levels Cmin [1, 3]: 1500 ng/mL
Human Plasma Levels Cmin ([1]; ART-naïve, Switch study, ART-experienced, virologically suppressed, CAB/rilpivirin LA every 4 weeks, monthly injection 400 mg IM): 2800 ng/mL
Human Plasma Levels Cmax [1, 4]: 8000 ng/mL
Human Plasma Levels Cmin [1, 4]: 4600 ng/mL
Human Plasma Levels Cmax [1, 5]: 1580 ng/mL
Human Plasma Levels Cmin [1, 5]: 1330 ng/mL
Human Plasma Levels Cmax [1, 6]: 2960 ng/mL
Human Plasma Levels Cmin [1, 6]: 1820 ng/mL
Human Plasma Levels Cmax [1, 7]: 3460 ng/mL
Human Plasma Levels Cmin [1, 7]: 2040 ng/mL
Human Plasma Levels Cmax [1, 8]: 3330 ng/mL
Human Plasma Levels Cmin [1, 8]: 2060 ng/mL
Human Plasma Levels Cmax [1, 9]: 3660 ng/mL
Human Plasma Levels Cmin [1, 9]: 2030 ng/mL
Human Plasma Levels Cmax [1, 10]: 1890 ng/mL
Human Plasma Levels Cmin [1, 10]: 950 ng/mL
Human Plasma Levels Cmax [1, 11]: 2290 ng/mL
Human Plasma Levels Cmin [1, 11]: 1350 ng/mL
Human Plasma Levels Cmax [1, 12]: 3010 ng/mL
Human Plasma Levels Cmin [1, 12]: 1650 ng/mL
Human Plasma Levels Cmax [1, 13]: 2510 ng/mL
Human Plasma Levels Cmin [1, 13]: 1790 ng/mL
Human Plasma Levels Cmax [1, 14]: 3900 ng/mL
Human Plasma Levels Cmin [1, 14]: 1290 ng/mL
Human Plasma Levels Cmax [1, 15]: 2960 ng/mL
Human Plasma Levels Cmin [1, 15]: 1110 ng/mL
Human Plasma Levels Cmax [1, 16]: 2960 ng/mL
Human Plasma Levels Cmin [1, 16]: 1460 ng/mL
Human Plasma Levels Cmax [1, 17]: 3820 ng/mL
Human Plasma Levels Cmin [1, 17]: 1680 ng/mL
Human Plasma Levels Cmax [1, 18]: 4260 ng/mL
Human Plasma Levels Cmin [1, 18]: 302 ng/mL
Human Plasma Levels Cmax [1, 19]: 2670 ng/mL
Human Plasma Levels Cmin [1, 19]: 490 ng/mL
Human Plasma Levels Cmax [1, 20]: 5220 ng/mL
Human Plasma Levels Cmin [1, 20]: 331 ng/mL
Human Plasma Levels Cmax [1, 21]: 2570 ng/mL
Human Plasma Levels Cmin [1, 21]: 780 ng/mL
Human Plasma Levels Cmax [1, 22]: 4910 ng/mL
Human Plasma Levels Cmin [1, 22]: 387 ng/mL
Human Plasma Levels Cmax [1, 23]: 3390 ng/mL
Human Plasma Levels Cmin [1, 23]: 820 ng/mL
Human Plasma Levels Cmax ([1]; Healthy Participants, IM (gluteal) injection 100 mg IM): 200 ng/mL
Human Plasma Levels Cmax ([1]; Healthy Participants, IM (gluteal) injection 200 mg IM): 300 ng/mL
Human Plasma Levels Cmax ([1]; Healthy Participants, IM (gluteal) injection 400 mg (200 mg × 2)): 1400 ng/mL
Human Plasma Levels Cmax ([1]; Healthy Participants, IM (gluteal) injection 400 mg IM): 700 ng/mL
Human Plasma Levels Cmax ([1]; Healthy Participants, IM (gluteal) injection 800 mg IM (400 mg × 2)): 3300 ng/mL
Human Plasma Levels Cmax ([1]; Healthy Participants, SC (abdominal) injection 100 mg): 200 ng/mL
Human Plasma Levels Cmax ([1]; Healthy Participants, SC (abdominal) injection 200 mg): 500 ng/mL
Human Plasma Levels Cmax ([1]; Healthy Participants, SC (abdominal) injection 400 mg (200 mg × 2)): 900 ng/mL
Human Plasma Levels Cmax [1, 24]: 8300 ng/mL
Human Plasma Levels Cmin [1, 24]: 4900 ng/mL
Human Plasma Levels Cmax [1, 25]: 2200 ng/mL
Human Plasma Levels Cmin [1, 25]: 1610 ng/mL
Human Plasma Levels Cmax [1, 26]: 2100 ng/mL
Human Plasma Levels Cmin [1, 26]: 1660 ng/mL
Human Plasma Levels Cmax [1, 27]: 4400 ng/mL
Human Plasma Levels Cmin [1, 27]: 3270 ng/mL
Human Plasma Levels Cmax [1, 28]: 3300 ng/mL
Human Plasma Levels Cmin [1, 28]: 1100 ng/mL
Human Plasma Levels Cmax [1, 29]: 2080 ng/mL
Human Plasma Levels Cmin [1, 29]: 1060 ng/mL
Human Plasma Levels Cmax [1, 30]: 4290 ng/mL
Human Plasma Levels Cmin [1, 30]: 2390 ng/mL
Human Plasma Levels Cmax [1, 31]: 9470 ng/mL
Human Plasma Levels Cmin [1, 31]: 5400 ng/mL
Human Plasma Levels Cmax [1, 32]: 1150 ng/mL
Human Plasma Levels Cmin [1, 32]: 420 ng/mL
Human Plasma Levels Cmax [1, 33]: 2150 ng/mL
Human Plasma Levels Cmin [1, 33]: 830 ng/mL
Human Plasma Levels Cmax [1, 34]: 4380 ng/mL
Human Plasma Levels Cmin [1, 34]: 1930 ng/mL
Human Plasma Levels Cmax [1, 35]: 8570 ng/mL
Human Plasma Levels Cmin [1, 35]: 3820 ng/mL
Human Plasma Levels Cmin ([1]; Participants with HIV, CAB/rilpivirine LA injectable, repeat-dose every 4 week 400 mg): 2740 ng/mL
Human Plasma Levels Cmin ([1]; Participants with HIV, CAB/rilpivirine LA injectable, repeat-dose every 8 week 600 mg): 1670 ng/mL
Human Plasma Levels Cmax ([1]; Participants with HIV, repeat oral dose 5 mg): 1020 ng/mL
Human Plasma Levels Cmax [1, 36]: 6370 ng/mL
Human Plasma Levels Cmin [1, 36]: 3280 ng/mL
Human Plasma Levels Cmax [1, 37]: 520 ng/mL
Human Plasma Levels Cmin [1, 37]: 230 ng/mL
Human Plasma Levels Cmin ([1]; Participants with HIV, single oral dose 30 mg (Ctau)): 1250 ng/mL
Human Plasma Levels Cmax ([1]; Participants with HIV, single oral dose 30 mg): 2840 ng/mL
Fetal toxicities (pregnant rabbits): no drug-related fetal toxicities
concentration at 24 h [2, 38]: 260 ng/mL
concentration at 24 h [2, 39]: 480 ng/mL
concentration at 24 h [2, 40]: ~1300 ng/mL
Cmax at 1 h [2, 38]: 913 ng/mL
Cmax at 1 h [2, 39]: 1270 ng/mL
Cmax at 1 h [2, 40]: 3580 ng/mL
Plasma Concentration 24 h (Cmin) [2, 40]: 1306 (402) ng/mL
Fetal viability and fetal malformations (pregnant rats; CAB orally 0, 0.5, 5, or 1000 mg/kg/day): no effects on fetal viability and no drug-related fetal malformations
Fetal body weight (pregnant rats; CAB orally 1000 mg/kg/day): minor decrease in fetal body weight
